According to patent US12527849B2, “Apparatus for determining administration form of a composition of an engineered virus-based nanoparticle for a treatment of an autoimmune condition” (Diamante Srl, priority 2021, dated 2026):

Tests used:
TNF-α = assay: Pro-inflammatory cytokines in sera of CIA Collagen mice (ELISA, day 58): TNF-α; type: in vivo; conditions: Dexamethasone oral 1 mg/kg, 20 times between day 28 and 57
Experimental: Critical administration 124 disclosed herein is further described below. Q5D represents administration 5 days a part. TBSV·pLIp1 and wt TBSV shown in Table 1 may include liquid form that are not sterile and stored in −20° C. TBSV·pLIp1 may be given at the dose of 50 μG/100 μL Male DBA/1J mice (8 weeks; Envigo, Italy) may be used for these studies. Mice may be housed in individual cages (two for each group) and maintained under a 12:12 light-dark cycle at 21° C.±1° C. and 50%±5% humidity. The animals may be acclimated to their environment for 1 week and had ad libitum access to tap water and standard rodent diet. All animal experiments may be complied with regulations in Italy (D.M. 116192), Europe (O.J of E.C. L 358/112/18/1986), and the United States (Animal Welfare Assurance Number A5594-01, Department of Health and Human Services, USA). […] Arthritis was assessed by using qualitative severity score system and hind paw volume (mL) measured by a plethysmometer on day 20, 22, 24, 26, 28, 30, 32, 34, 36, 38, 40, 42, 44, 46 48, 50, 52, 54, 56 and 58. Body weight was recorded on day 0, 6, 13, 16, 18, 20, 22, 24, 26, 28, 30, 32, 34, 36, 38, 40, 42, 44, 46, 50, 52, 54, 56 and 58. […]

IL-10 = assay: Cytokine ELISA in CIA mice, day 60: IL-10; type: in vivo; conditions: serum pooled from five CIA mice
Source text: With continued reference to FIG. 1, in some embodiments, administration 116 may be done to an animal. As a non-limiting example, the animal may include a mouse, a fish, a rabbit, human, and the like. As a non-limiting example, administration 116 of composition of the engineered virus-based nanoparticle for a treatment of an autoimmune condition may be done to dilute, brown, and non-agouti (DBA) mice based on their susceptibility to collagen-induced arthritis (CIA). Female DBA/1 mice 6 to 8 weeks of age may be maintained under specific pathogen-free conditions. CIA may be induced by the intradermal tail base injection of 100 μg of chicken type II collagen (Sigma-Aldrich) as previously described. Five mice per group may be immunized on days 0 and 21 to induce arthritis. The onset of disease may be confirmed on the day that swelling or erythema may be observed in any paw, typically 4 to 10 days after the second immunization. Each experimental group may be treated seven times, 5 days apart, starting from day 28 after the first immunization, with intraperitoneal injections of saline (200 μI per mouse), TBSV·pLIp1, TBSV·pFADK2, pLIp1+IFA, and pFADK2+IFA (all 50 μg per mouse in 200 μl) or dexamethasone (5 μg per mouse in 200 μl). […] CIA may be assessed using a macroscopic score system based on the visual identification of arthritic limbs.

## C[C@@H]1C[C@H]2[C@@H]3CCC4=CC(=O)C=C[C@]4(C)[C@@]3(F)[C@@H](O)C[C@]2(C)[C@@]1(O)C(=O)CO [Dexamethasone, dexamethasone]
TNF-α
  TNF-α, % of reduction vs CIA Collagen: 12.02%
IL-10
  IL-10: 71.6 pg/mL
